Test results published in PubChem BioAssay (NCI).
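Growth conditions: 96-well plates. Treatment: test compound, 48 hours, 5 concentrations. Analysis: linear interpolation between bracketing concentrations; unreached endpoints set to highest concentration. GI50 marks 50% less growth. The concentration for full growth arrest is given as TGI.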

Experiments:
Experiment in all cases: inhibition of tumour cell growth, NCI panel, 48 h
SNB-75 CNS = system: SNB-75 CNS
SW-620 colon = system: SW-620 colon
HS 578T breast = system: HS 578T breast
NCI-H522 lung = system: NCI-H522 lung
MOLT-4 leukemia = system: MOLT-4 leukemia
OVCAR-5 ovarian = system: OVCAR-5 ovarian
SF-295 CNS = system: SF-295 CNS
NCI-H460 lung = system: NCI-H460 lung
ACHN renal = system: ACHN renal
MDA-MB-231 breast = system: MDA-MB-231 breast

## Cc1c(C(N)=O)sc2nc(C)n(/N=c3\scc(-c4ccccc4)n3Cc3ccccc3)c(=O)c12
SNB-75 CNS
  GI50: 2.8 µM
  TGI: > 100 µM
SW-620 colon
  GI50: 3.16 µM
  TGI: > 100 µM
HS 578T breast
  GI50: 3.85 µM
  TGI: > 100 µM
NCI-H522 lung
  GI50: 1.73 µM
  TGI: 7.23 µM
MOLT-4 leukemia
  GI50: 24.6 µM
  TGI: > 100 µM
OVCAR-5 ovarian
  GI50: 4.33 µM
  TGI: > 100 µM
SF-295 CNS
  GI50: 2.93 µM
  TGI: > 100 µM
NCI-H460 lung
  GI50: 2.65 µM
  TGI: 7.34 µM
ACHN renal
  GI50: 2.86 µM
  TGI: > 100 µM
MDA-MB-231 breast
  GI50: 3.28 µM
  TGI: 8.41 µM

## CSc1nc(SC)c2c(C)cn(COCCOC(=O)c3ccccc3)c2n1
SNB-75 CNS
  TGI: > 100 µM
SW-620 colon
  TGI: > 100 µM
HS 578T breast
  TGI: > 100 µM
NCI-H522 lung
  TGI: > 100 µM
MOLT-4 leukemia
  TGI: > 100 µM
OVCAR-5 ovarian
  TGI: > 100 µM
SF-295 CNS
  TGI: > 100 µM
NCI-H460 lung
  TGI: > 100 µM
ACHN renal
  TGI: > 100 µM
MDA-MB-231 breast
  TGI: > 100 µM

## Cn1c(I)c(C#C[Si](C)(C)C)c(=O)[nH]c1=O
SNB-75 CNS
  GI50: 15.2 µM
  TGI: 29.3 µM
SW-620 colon
  GI50: 1.71 µM
  TGI: 3.23 µM
HS 578T breast
  GI50: 2.3 µM
  TGI: 7.08 µM
NCI-H522 lung
  GI50: 1.68 µM
  TGI: 3.18 µM
MOLT-4 leukemia
  GI50: 2.54 µM
  TGI: 5.76 µM
OVCAR-5 ovarian
  GI50: 14.7 µM
  TGI: 30.8 µM
SF-295 CNS
  GI50: 20 µM
  TGI: 45.8 µM
NCI-H460 lung
  GI50: 19.7 µM
  TGI: 41.3 µM
ACHN renal
  GI50: 1.61 µM
  TGI: 3.01 µM
MDA-MB-231 breast
  GI50: 2.5 µM
  TGI: 7.25 µM

## COc1ccc(-c2c(-c3ccc(C#N)c(F)c3)nc(N3CCC(N)CC3)n(C)c2=O)cc1F
SNB-75 CNS
  GI50: 10.9 µM
  TGI: 27.7 µM
SW-620 colon
  GI50: 24.2 µM
  TGI: 96.2 µM
HS 578T breast
  GI50: 13.2 µM
  TGI: 44.6 µM
NCI-H522 lung
  GI50: 13.6 µM
  TGI: 30.7 µM
MOLT-4 leukemia
  GI50: 15.5 µM
  TGI: 46.2 µM
OVCAR-5 ovarian
  GI50: 14.4 µM
  TGI: 44.2 µM
SF-295 CNS
  GI50: 15.4 µM
  TGI: 31.9 µM
NCI-H460 lung
  GI50: 19.1 µM
  TGI: 37.1 µM
ACHN renal
  GI50: 15.8 µM
  TGI: 41.5 µM
MDA-MB-231 breast
  GI50: 12.5 µM
  TGI: 26.7 µM

## O=C1Cc2cc(CCN3CCNCC3)c(Cl)cc2N1
SNB-75 CNS
  GI50: 15.5 µM
  TGI: 75.4 µM
SW-620 colon
  GI50: 4.98 µM
  TGI: > 100 µM
HS 578T breast
  GI50: 1.57 µM
  TGI: > 100 µM
NCI-H522 lung
  GI50: 4.86 µM
  TGI: > 100 µM
MOLT-4 leukemia
  GI50: > 100 µM
  TGI: > 100 µM
OVCAR-5 ovarian
  GI50: 79.2 µM
  TGI: > 100 µM
SF-295 CNS
  GI50: 4.2 µM
  TGI: > 100 µM
NCI-H460 lung
  GI50: 22.9 µM
  TGI: > 100 µM
ACHN renal
  GI50: > 100 µM
  TGI: > 100 µM
MDA-MB-231 breast
  GI50: 3.9 µM
  TGI: > 100 µM

## CCc1c(C)c2cc(-n3c(-c4ccc(OC)cc4)csc3=N)c(O)c(C)c2oc1=O
SNB-75 CNS
  GI50: 1.67 µM
  TGI: > 100 µM
SW-620 colon
  GI50: 1.32 µM
  TGI: 3.28 µM
HS 578T breast
  GI50: 2.1 µM
  TGI: > 100 µM
NCI-H522 lung
  GI50: 0.646 µM
  TGI: 2.46 µM
MOLT-4 leukemia
  GI50: 1.54 µM
  TGI: > 100 µM
OVCAR-5 ovarian
  GI50: 2.19 µM
  TGI: 4.75 µM
SF-295 CNS
  GI50: 1.52 µM
  TGI: 10.3 µM
NCI-H460 lung
  GI50: 2.25 µM
  TGI: 10.6 µM
ACHN renal
  GI50: 1.53 µM
  TGI: 3.6 µM
MDA-MB-231 breast
  GI50: 1.52 µM
  TGI: 6.39 µM

## C(=N\Nc1ccc2ccccc2n1)/c1ccccn1
SNB-75 CNS
  GI50: 1.1 µM
  TGI: 51.2 µM
SW-620 colon
  GI50: 0.644 µM
  TGI: > 43.3 µM
HS 578T breast
  GI50: 2.36 µM
  TGI: > 52.9 µM
NCI-H522 lung
  GI50: 0.319 µM
  TGI: 11.8 µM
MOLT-4 leukemia
  GI50: 0.353 µM
  TGI: > 21.8 µM
OVCAR-5 ovarian
  GI50: 0.596 µM
  TGI: > 100 µM
SF-295 CNS
  GI50: 0.348 µM
  TGI: 12.9 µM
NCI-H460 lung
  GI50: 0.366 µM
ACHN renal
  GI50: 0.367 µM
  TGI: > 43.9 µM
MDA-MB-231 breast
  GI50: 0.695 µM
  TGI: > 100 µM

## COc1ccc2c(c1)/C(=N/OC(C)=O)c1c-2c(OC)nc2ccccc12
SNB-75 CNS
  GI50: 18 µM
  TGI: > 100 µM
SW-620 colon
  GI50: > 100 µM
  TGI: > 100 µM
HS 578T breast
  GI50: 48.1 µM
  TGI: > 100 µM
NCI-H522 lung
  GI50: > 100 µM
  TGI: > 100 µM
MOLT-4 leukemia
  GI50: > 100 µM
  TGI: > 100 µM
OVCAR-5 ovarian
  GI50: > 100 µM
  TGI: > 100 µM
SF-295 CNS
  GI50: > 100 µM
  TGI: > 100 µM
NCI-H460 lung
  GI50: > 100 µM
  TGI: > 100 µM
ACHN renal
  GI50: 86.4 µM
  TGI: > 100 µM
MDA-MB-231 breast
  GI50: 35 µM
  TGI: > 100 µM

## NS(=O)(=O)c1ccc(N=Nc2c[nH]c(=O)c(O)c2)cc1
SNB-75 CNS
  TGI: > 100 µM
SW-620 colon
  TGI: > 100 µM
HS 578T breast
  TGI: > 100 µM
NCI-H522 lung
  TGI: 28.6 µM
MOLT-4 leukemia
  TGI: > 100 µM
OVCAR-5 ovarian
  TGI: > 100 µM
SF-295 CNS
  TGI: > 100 µM
NCI-H460 lung
  TGI: > 100 µM
ACHN renal
  TGI: > 100 µM
MDA-MB-231 breast
  TGI: > 100 µM

## Cc1ccc(-c2nc3sc(C)cn3c2/C=C2\C(=O)Nc3ccc(Cl)cc32)cc1
SNB-75 CNS
  GI50: 3.1 µM
  TGI: 8.44 µM
SW-620 colon
  GI50: 19.1 µM
  TGI: 52.1 µM
HS 578T breast
  GI50: 8.02 µM
  TGI: 73.7 µM
NCI-H522 lung
  GI50: 15.5 µM
  TGI: 30.1 µM
MOLT-4 leukemia
  GI50: 26.2 µM
  TGI: 82.7 µM
OVCAR-5 ovarian
  GI50: 18.8 µM
  TGI: 38.5 µM
SF-295 CNS
  GI50: 8.2 µM
  TGI: 32.9 µM
NCI-H460 lung
  GI50: 15.7 µM
  TGI: 31.9 µM
ACHN renal
  GI50: 4.27 µM
  TGI: 16 µM
MDA-MB-231 breast
  GI50: 4.35 µM
  TGI: 20.1 µM

## N#Cc1c(N)nc(N2CCOCC2)c(C#N)c1-c1c(Cl)cccc1Cl
SNB-75 CNS
  GI50: 1.75 µM
  TGI: 9.66 µM
SW-620 colon
  GI50: 5.16 µM
  TGI: > 100 µM
HS 578T breast
  GI50: 5.07 µM
  TGI: 63.9 µM
NCI-H522 lung
  GI50: 2.36 µM
  TGI: 8.38 µM
MOLT-4 leukemia
  GI50: 5.1 µM
  TGI: 86.5 µM
OVCAR-5 ovarian
  GI50: 6.27 µM
  TGI: 35.3 µM
SF-295 CNS
  GI50: 4.4 µM
  TGI: 43.2 µM
NCI-H460 lung
  GI50: 6.39 µM
  TGI: 44.6 µM
ACHN renal
  GI50: 13.4 µM
  TGI: 44.5 µM
MDA-MB-231 breast
  GI50: 3.57 µM
  TGI: 15.4 µM

## Oc1[nH]c2ccccc2c1C=Nc1ccc(-n2cncn2)cc1
SNB-75 CNS
  GI50: > 25 µM
  TGI: > 25 µM
SW-620 colon
  GI50: > 25 µM
  TGI: > 25 µM
HS 578T breast
  GI50: > 25 µM
  TGI: > 25 µM
NCI-H522 lung
  GI50: 10.7 µM
  TGI: > 25 µM
MOLT-4 leukemia
  GI50: 20.4 µM
  TGI: > 25 µM
OVCAR-5 ovarian
  GI50: > 25 µM
  TGI: > 25 µM
SF-295 CNS
  GI50: > 25 µM
  TGI: > 25 µM
NCI-H460 lung
  GI50: > 23 µM
  TGI: > 25 µM
ACHN renal
  GI50: 18.3 µM
  TGI: > 25 µM
MDA-MB-231 breast
  GI50: > 25 µM
  TGI: > 25 µM

## COc1cc(C(=O)n2nc(N)c3c(C)cc(C)nc32)cc(OC)c1OC
SNB-75 CNS
  GI50: > 38.3 µM
  TGI: > 100 µM
SW-620 colon
  GI50: 2.48 µM
  TGI: > 100 µM
HS 578T breast
  GI50: > 100 µM
  TGI: > 100 µM
NCI-H522 lung
  GI50: 10.8 µM
  TGI: > 100 µM
MOLT-4 leukemia
  GI50: 7.26 µM
  TGI: > 100 µM
OVCAR-5 ovarian
  GI50: > 100 µM
  TGI: > 100 µM
SF-295 CNS
  GI50: > 100 µM
  TGI: > 100 µM
NCI-H460 lung
  GI50: > 100 µM
  TGI: > 100 µM
ACHN renal
  GI50: > 100 µM
  TGI: > 100 µM
MDA-MB-231 breast
  GI50: > 100 µM
  TGI: > 100 µM
